According to the NIST ThermoML archive (doi:10.1021/je700152c):

Test: molar heat capacity at saturation pressure

CCCCn1cc[n+](C)c1.Cc1ccc(S(=O)(=O)[O-])cc1 [1-butyl-3-methylimidazolium tosylate]
Conditions | molar heat capacity [J/K/mol]
5.19 K, Crystal 2 | 2.822
5.39 K, Crystal 2 | 3.132
5.69 K, Crystal 2 | 3.579
5.99 K, Crystal 2 | 4.042
6.33 K, Crystal 2 | 4.588
6.71 K, Crystal 2 | 5.224
7.1 K, Crystal 2 | 5.913
7.49 K, Crystal 2 | 6.618
7.88 K, Crystal 2 | 7.372
8.27 K, Crystal 2 | 8.155
8.67 K, Crystal 2 | 8.98
9.06 K, Crystal 2 | 9.831
9.46 K, Crystal 2 | 10.7
9.86 K, Crystal 2 | 11.58
10.37 K, Crystal 2 | 12.77
10.99 K, Crystal 2 | 14.2
11.62 K, Crystal 2 | 15.75
12.24 K, Crystal 2 | 17.23
12.87 K, Crystal 2 | 18.81
13.5 K, Crystal 2 | 20.4
14.13 K, Crystal 2 | 22.01
14.77 K, Crystal 2 | 23.69
15.52 K, Crystal 2 | 25.71
16.38 K, Crystal 2 | 28.11
17.25 K, Crystal 2 | 30.43
18.11 K, Crystal 2 | 32.69
18.98 K, Crystal 2 | 34.95
19.85 K, Crystal 2 | 37.28
21.02 K, Crystal 2 | 40.42
22.47 K, Crystal 2 | 44.36
23.94 K, Crystal 2 | 48.42
25.4 K, Crystal 2 | 52.37
26.86 K, Crystal 2 | 56.28
27.91 K, Crystal 2 | 59.01
29.13 K, Crystal 2 | 62.18
30.61 K, Crystal 2 | 65.96
32.24 K, Crystal 2 | 70.12
34.04 K, Crystal 2 | 74.47
35.85 K, Crystal 2 | 78.78
37.65 K, Crystal 2 | 82.79
39.46 K, Crystal 2 | 86.82
41.36 K, Crystal 2 | 90.86
43.36 K, Crystal 2 | 95.05
45.37 K, Crystal 2 | 99.18
47.37 K, Crystal 2 | 103.21
49.38 K, Crystal 2 | 107.12
51.39 K, Crystal 2 | 110.88
53.4 K, Crystal 2 | 114.57
55.41 K, Crystal 2 | 118.11
57.43 K, Crystal 2 | 121.56
59.46 K, Crystal 2 | 124.97
61.48 K, Crystal 2 | 128.2
63.5 K, Crystal 2 | 131.49
65.48 K, Crystal 2 | 134.6
67.5 K, Crystal 2 | 137.79
69.52 K, Crystal 2 | 140.83
71.55 K, Crystal 2 | 143.85
73.58 K, Crystal 2 | 146.89
75.61 K, Crystal 2 | 149.84
77.64 K, Crystal 2 | 152.66
78.3 K, Crystal 2 | 153.84
78.41 K, Crystal 2 | 154.03
78.68 K, Metastable crystal | 155.18
79.68 K, Crystal 2 | 155.55
80.29 K, Crystal 2 | 156.42
80.4 K, Crystal 2 | 156.6
80.63 K, Crystal 2 | 156.82
80.67 K, Metastable crystal | 157.91
81.72 K, Crystal 2 | 158.34
82.14 K, Crystal 2 | 158.9
82.25 K, Crystal 2 | 158.9
82.53 K, Metastable crystal | 160.36
82.63 K, Crystal 2 | 159.37
83.76 K, Crystal 2 | 161.26
84.01 K, Crystal 2 | 161.35
84.11 K, Crystal 2 | 161.51
84.39 K, Metastable crystal | 163.15
84.49 K, Crystal 2 | 161.88
85.88 K, Crystal 2 | 163.77
85.98 K, Crystal 2 | 164.02
86.26 K, Metastable crystal | 165.85
86.36 K, Crystal 2 | 164.39
87.76 K, Crystal 2 | 166.29
87.86 K, Crystal 2 | 166.47
88.14 K, Metastable crystal | 168.4
88.24 K, Crystal 2 | 166.85
89.65 K, Crystal 2 | 168.77
89.74 K, Crystal 2 | 168.83
90.02 K, Metastable crystal | 171.1
90.12 K, Crystal 2 | 169.39
91.54 K, Crystal 2 | 171.25
91.63 K, Crystal 2 | 171.32
91.92 K, Metastable crystal | 173.77
92.02 K, Crystal 2 | 171.84
93.45 K, Crystal 2 | 173.71
93.54 K, Crystal 2 | 173.8
93.82 K, Metastable crystal | 176.53
93.92 K, Crystal 2 | 174.27
95.36 K, Crystal 2 | 176.16
95.45 K, Crystal 2 | 176.25
95.72 K, Metastable crystal | 179.17
95.83 K, Crystal 2 | 176.69
97.28 K, Crystal 2 | 178.64
97.37 K, Crystal 2 | 178.7
97.64 K, Metastable crystal | 181.78
97.75 K, Crystal 2 | 179.08
99.21 K, Crystal 2 | 181.03
99.29 K, Crystal 2 | 181.06
99.55 K, Metastable crystal | 184.48
99.67 K, Crystal 2 | 181.44
101.08 K, Crystal 2 | 183.3
101.16 K, Crystal 2 | 183.36
101.42 K, Metastable crystal | 187.02
101.54 K, Crystal 2 | 183.8
102.89 K, Crystal 2 | 185.56
102.98 K, Crystal 2 | 185.56
103.22 K, Metastable crystal | 189.6
103.36 K, Crystal 2 | 186.06
104.71 K, Crystal 2 | 187.86
104.79 K, Crystal 2 | 187.86
105.03 K, Metastable crystal | 192.05
105.18 K, Crystal 2 | 188.27
106.53 K, Crystal 2 | 190.03
106.61 K, Crystal 2 | 190.07
106.84 K, Metastable crystal | 194.54
107 K, Crystal 2 | 190.5
108.37 K, Crystal 2 | 192.21
108.44 K, Crystal 2 | 192.24
108.66 K, Metastable crystal | 197.08
108.83 K, Crystal 2 | 192.7
110.2 K, Crystal 2 | 194.41
110.27 K, Crystal 2 | 194.41
110.48 K, Metastable crystal | 199.56
110.67 K, Crystal 2 | 194.88
112.03 K, Crystal 2 | 196.58
112.1 K, Crystal 2 | 196.52
112.31 K, Metastable crystal | 201.92
112.5 K, Crystal 2 | 197.14
113.87 K, Crystal 2 | 198.73
113.94 K, Crystal 2 | 198.82
114.13 K, Metastable crystal | 204.5
114.34 K, Crystal 2 | 199.29
115.71 K, Crystal 2 | 200.99
115.78 K, Crystal 2 | 201.09
115.96 K, Metastable crystal | 207.01
116.18 K, Crystal 2 | 201.52
117.56 K, Crystal 2 | 203.23
117.62 K, Crystal 2 | 203.17
117.79 K, Metastable crystal | 209.47
118.02 K, Crystal 2 | 203.66
119.41 K, Crystal 2 | 205.4
119.46 K, Crystal 2 | 205.31
119.62 K, Metastable crystal | 212.17
119.87 K, Crystal 2 | 205.87
121.26 K, Crystal 2 | 207.48
121.3 K, Crystal 2 | 207.51
121.45 K, Metastable crystal | 214.65
121.71 K, Crystal 2 | 208.04
123.11 K, Crystal 2 | 209.71
123.16 K, Crystal 2 | 209.78
123.28 K, Metastable crystal | 217.2
123.56 K, Crystal 2 | 210.24
124.97 K, Crystal 2 | 211.95
